# *1 amine or outer side, *2 acyl side, *3 side chain or, on linkers, in order; H or OH if unused. Where a SMILES comes first, the peptide text is derived from it. Bridges are numbered along the chain shown (N, C = ends). Roman numbers before positions name the chains, in order. [ ]: non-standard residue; d: D form. Actinocin(1to9) = Cc1c2oc3c(C)ccc(C(=O)[*:2])c3nc-2c(C(=O)[*:1])c(N)c1=O; NMeV = CN[C@H](C(=O)O)C(C)C; Sar = CNCC(=O)O
# Assays:
# [1] = DRUGMATRIX: ATPase, Na+/K+ enzyme inhibition (substrate: ATP); format: tissue-based, Sus scrofa, Heart; settings: Not Active = under 50% inhibition at 10 µM
# Substance-P receptor = Substance-P receptor (Homo sapiens, UniProt P25103); format: cell membranes, CHO, Membrane; settings: cho; further: in other assays of this panel Not Active means under 50% inhibition at 10 µM
# Sequence of Substance-P receptor (P25103 whole entry): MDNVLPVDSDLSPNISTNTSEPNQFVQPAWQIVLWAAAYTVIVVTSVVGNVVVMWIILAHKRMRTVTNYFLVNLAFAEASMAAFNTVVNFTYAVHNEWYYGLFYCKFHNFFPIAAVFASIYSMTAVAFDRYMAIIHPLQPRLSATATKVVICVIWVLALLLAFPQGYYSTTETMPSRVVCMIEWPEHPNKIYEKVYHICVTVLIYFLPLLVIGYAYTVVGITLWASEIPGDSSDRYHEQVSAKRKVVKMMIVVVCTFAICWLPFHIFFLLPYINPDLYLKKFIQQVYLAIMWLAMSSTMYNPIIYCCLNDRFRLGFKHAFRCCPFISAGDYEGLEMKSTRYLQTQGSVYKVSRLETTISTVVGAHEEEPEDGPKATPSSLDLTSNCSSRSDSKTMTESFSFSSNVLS
# Carbonic anhydrase 2 = Carbonic anhydrase 2 (Homo sapiens, UniProt P00918); assay: DRUGMATRIX: Carbonic Anhydrase II enzyme inhibition (substrate: 4-Nitrophenyl acetate (4-NPA)); format: tissue-based, Erythrocyte; settings: erythrocyte; Not Active = under 50% inhibition at 10 µM
# [2] = DRUGMATRIX: GABAA, Flunitrazepam, Central radioligand binding (ligand: [3H] Flunitrazepam); format: cell membranes, Rattus norvegicus, Wistar, Brain, Membrane; settings: Not Active = under 50% inhibition at 10 µM
# [3] = DRUGMATRIX: Glutamate, AMPA radioligand binding (ligand: [3H] AMPA); format: cell membranes, Rattus norvegicus, Wistar, Cerebral cortex, Membrane; settings: Not Active = under 50% inhibition at 10 µM
# [4] = DRUGMATRIX: Platelet-Derived Growth Factor (PDGF) radioligand binding (ligand: [125I] PDGF); format: cell-based; settings: nih3t3; Not Active = under 50% inhibition at 10 µM
# Adenosine receptor A3 = molecular target: T1, Adenosine receptor A3 (Homo sapiens, UniProt P0DMS8); format: cell membranes, CHO-K1, Membrane;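 further: radioligand binding assay with AB-MECA serving as the labeled ligand; in other assays of this panel Not Active means under 50% inhibition at 10 µM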
# T1 sequence (P0DMS8 whole entry): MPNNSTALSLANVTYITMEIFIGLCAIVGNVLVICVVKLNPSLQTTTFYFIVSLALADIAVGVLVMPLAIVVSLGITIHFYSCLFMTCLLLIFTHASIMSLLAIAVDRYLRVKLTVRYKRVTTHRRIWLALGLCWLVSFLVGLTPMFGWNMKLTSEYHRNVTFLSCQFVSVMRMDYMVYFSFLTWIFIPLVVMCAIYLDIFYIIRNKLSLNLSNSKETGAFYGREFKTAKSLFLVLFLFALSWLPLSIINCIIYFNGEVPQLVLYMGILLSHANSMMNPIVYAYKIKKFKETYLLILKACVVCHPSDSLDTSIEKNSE
SMILES,IC50 [1],Ki [1],IC50 (Substance-P receptor),IC50 (Carbonic anhydrase 2),IC50 [2],Ki [2],IC50 [3],Ki [3],IC50 [4],Ki [4],IC50 (Adenosine receptor A3; cho-k1),IC50 ([1]; read-out: IC50) [µM],IC50 (Adenosine receptor A3; read-out: IC50) [nM],Ki (Adenosine receptor A3; read-out: Ki) [nM]
CC1=C2C(=CO[C@H](C)[C@H]2C)C(O)=C(C(=O)O)C1=O [CITRININ],Not Active,Not Active,Not Active,Not Active,Not Active,Not Active,Not Active,Not Active,Not Active,Not Active,Not Active,–,–,–
CC(C)(C)NCC(O)c1cc(Cl)c(N)c(Cl)c1 (stereo unspecified) [CLENBUTEROL],Not Active,Not Active,Not Active,Not Active,Not Active,Not Active,Not Active,Not Active,Not Active,Not Active,Not Active,–,–,–
CC(C)(Oc1ccc(Cl)cc1)C(=O)O [CLOFIBRIC ACID],Not Active,Not Active,Not Active,Not Active,Not Active,Not Active,Not Active,Not Active,Not Active,Not Active,Not Active,–,–,–
Clc1cccc(Cl)c1NC1=NCCN1 [CLONIDINE],Not Active,Not Active,Not Active,Not Active,Not Active,Not Active,Not Active,Not Active,Not Active,Not Active,Not Active,–,–,–
Cc1cc(C(C#N)c2ccc(Cl)cc2)c(Cl)cc1NC(=O)c1cc(I)cc(I)c1O (stereo unspecified) [CLOSANTEL],–,–,Not Active,Not Active,Not Active,Not Active,Not Active,Not Active,Not Active,Not Active,–,4.88,96,54
Cc1onc(-c2ccccc2Cl)c1C(=O)N[C@@H]1C(=O)N2[C@@H]1SC(C)(C)[C@@H]2C(=O)O [CLOXACILLIN],Not Active,Not Active,Not Active,Not Active,Not Active,Not Active,Not Active,Not Active,Not Active,Not Active,Not Active,–,–,–
CC1CC(OC(=O)C(O)c2ccccc2)CC(C)(C)C1 (stereo unspecified) [CYCLANDELATE],Not Active,Not Active,Not Active,Not Active,Not Active,Not Active,Not Active,Not Active,Not Active,Not Active,Not Active,–,–,–
"Cc1c2oc3c(C)ccc(C(=O)N[C@@H]4C(=O)N[C@H](C(C)C)C(=O)N5CCC[C@H]5C(=O)N(C)CC(=O)N(C)[C@@H](C(C)C)C(=O)O[C@@H]4C)c3nc-2c(C(=O)N[C@@H]2C(=O)N[C@H](C(C)C)C(=O)N3CCC[C@H]3C(=O)N(C)CC(=O)N(C)[C@@H](C(C)C)C(=O)O[C@@H]2C)c(N)c1=O [DACTINOMYCIN] (I: T[dV]P[Sar][NMeV] / II: T[dV]P[Sar][NMeV]; ester I:1-I:C, II:1-II:C; linker I:N-II:N via Actinocin(1to9))",Not Active,Not Active,Not Active,Not Active,Not Active,Not Active,Not Active,Not Active,Not Active,Not Active,Not Active,–,–,–
Cc1c(O)c(=O)ccn1C [DEFERIPRONE],Not Active,Not Active,Not Active,Not Active,Not Active,Not Active,Not Active,Not Active,Not Active,Not Active,Not Active,–,–,–
CNCCCN1c2ccccc2CCc2ccccc21 [DESIPRAMINE],Not Active,Not Active,Not Active,Not Active,Not Active,Not Active,Not Active,Not Active,Not Active,Not Active,Not Active,–,–,–
O=c1oc2ccccc2c(O)c1Cc1c(O)c2ccccc2oc1=O [DICUMAROL],Not Active,Not Active,Not Active,Not Active,Not Active,Not Active,Not Active,Not Active,Not Active,Not Active,Not Active,–,–,–
C[C@H]1O[C@@H](O[C@H]2[C@@H](O)C[C@H](O[C@H]3[C@@H](O)C[C@H](O[C@H]4CC[C@@]5(C)[C@H](CC[C@@H]6[C@@H]5C[C@@H](O)[C@]5(C)[C@@H](C7=CC(=O)OC7)CC[C@]65O)C4)O[C@@H]3C)O[C@@H]2C)C[C@H](O)[C@@H]1O [DIGOXIN],–,–,Not Active,Not Active,Not Active,Not Active,Not Active,Not Active,Not Active,Not Active,Not Active,1.65,–,–

# — ChEMBL document CHEMBL1909046, “DrugMatrix in vitro pharmacology data”
